Experiments:
Assay type in all cases: biochemical
human JAK2 = target: T1, human JAK2 (Homo sapiens, UniProt O60674); assay: JAK kinase assay (ELISA or Alphascreen), Jak2; details: standard conditions, read-out: Jak2 inhibition of enzyme activity
T1 construct: The kinase domain of human JAK2 was amplified from U937mRNA; His tag (pFastBac HTc vector; nickel chelate purification) (N); made in house; host or cells: baculovirus; Sf9 for virus, High Five insect cells for production
Description: The kinase domain of human JAK2 was amplified from U937mRNA using the polymerase chain reaction with the following primers: […]
JAK2 PCR products were cloned into the pFastBac HTc expression vector (Gibco) via the Sal I and Not I sites. The JAK2 plasmid was then transformed into competent DHL10Bac cells (Gibco), and the recombinant baculovirus produced prepared for transfection into Sf9 insect cells.
(§1) Baculovirus preparations from each of the JAK family members were infected into five litres of High Five cells (Invitrogen) grown in High Five serum free medium (Invitrogen) to a cell density of approximately 1-2×10^6 cells/ml. Cells are infected with virus at a MOI of 0.8-3.0. Cells were harvested and lysed. JAK kinase domains were purified by affinity chromatography on a Probond (Invitrogen) nickel chelate affinity column.
(§2) Kinase assays were performed either in a 96 well capture-based ELISA assay or in 384 well Optiplates (Packard) using an Alphascreen Protein Tyrosine Kinase kit. In either case using approximately 15 μg of affinity purified PTK domain in the presence of 50 mM HEPES, pH 7.5, 10 mM MgCl2 150 mM NaCl and 10 μM-1 mM ATP. The biotinylated substrate biotin-EGPWLEEEEEAYGWMDF-NH2 (final concentration 5 μM) was used as substrate. In the ELISA assay tyrosine phosphorylation was quantitated following transfer to an avidin coated ELISA plate using peroxidase-linked anti-phospho-tyrosine antibody PY20. In the Alphascreen assay, Alphascreen phosphotyrosine acceptor beads followed by streptavidin donor beads were added under subdued light. The ELISA plates were read on a BMG Fluorostar, the Alphascreen plates were read on a Packard Fusion Alpha. Inhibitors were added to the assays fifteen minutes prior to the addition of ATP. Inhibitors were added in aqueous DMSO, with DMSO concentrations never exceeding 1%.

human JAK3 = target: T2, human JAK3 (Homo sapiens, UniProt P52333); assay: JAK kinase assay (ELISA or Alphascreen), Jak3; details: standard conditions, read-out: Jak3 inhibition of enzyme activity
T2 construct: The kinase domain of human JAK3 was amplified from U937mRNA; His tag (pFastBac HTb vector; nickel chelate purification) (N); made in house; host or cells: baculovirus; Sf9 for virus, High Five insect cells for production
Description: The kinase domain of human JAK3 was amplified from U937mRNA using the polymerase chain reaction with the following primers: […]
JAK3 PCR products were cloned into the pFastBac HTb expression vector (Gibco) via the Xho I and Kpn I sites. The JAK3 plasmid was then transformed into competent DH10Bac cells (Gibco), and the recombinant baculovirus produced prepared for transfection into Sf9 insect cells.
as §1, §2

kdr = kdr (Homo sapiens, UniProt P35968); assay: Kinase assay (ELISA or Alphascreen), kdr; details: standard conditions, read-out: kdr inhibition of enzyme activity
Procedure: as §2

kdr, sequence (P35968 834-1162 limits assumed, species assumed): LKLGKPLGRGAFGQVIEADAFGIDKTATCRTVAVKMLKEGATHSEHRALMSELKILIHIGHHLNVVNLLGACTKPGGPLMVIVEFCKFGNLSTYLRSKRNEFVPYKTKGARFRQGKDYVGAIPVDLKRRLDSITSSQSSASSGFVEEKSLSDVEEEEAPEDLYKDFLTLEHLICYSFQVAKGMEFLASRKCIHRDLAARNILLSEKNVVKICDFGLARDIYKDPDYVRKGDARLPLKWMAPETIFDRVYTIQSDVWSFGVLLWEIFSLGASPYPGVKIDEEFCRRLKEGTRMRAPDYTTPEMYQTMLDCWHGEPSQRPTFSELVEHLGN
T1 sequence (O60674 849-1124 limits assumed): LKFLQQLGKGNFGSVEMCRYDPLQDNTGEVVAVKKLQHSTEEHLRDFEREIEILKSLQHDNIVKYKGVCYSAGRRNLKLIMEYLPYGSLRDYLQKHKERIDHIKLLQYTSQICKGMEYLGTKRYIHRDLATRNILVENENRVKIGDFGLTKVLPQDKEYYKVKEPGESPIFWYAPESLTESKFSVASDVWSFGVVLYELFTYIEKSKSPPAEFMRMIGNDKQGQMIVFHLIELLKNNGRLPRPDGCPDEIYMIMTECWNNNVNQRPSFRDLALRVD
T2 sequence (P52333 822-1111 limits assumed): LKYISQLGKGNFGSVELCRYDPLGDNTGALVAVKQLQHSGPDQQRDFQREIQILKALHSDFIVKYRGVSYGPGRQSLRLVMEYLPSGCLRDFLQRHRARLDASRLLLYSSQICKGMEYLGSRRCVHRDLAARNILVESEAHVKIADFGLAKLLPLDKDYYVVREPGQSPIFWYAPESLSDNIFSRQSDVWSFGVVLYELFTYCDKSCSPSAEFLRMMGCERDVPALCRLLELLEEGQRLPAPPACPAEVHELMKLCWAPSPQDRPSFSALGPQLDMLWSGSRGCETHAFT

SMILES	inhibition at 20 µM (human JAK2) [%]	inhibition at 20 µM (human JAK3) [%]	inhibition at 20 µM (kdr) [%]
COc1ccc2c(c1)CCC2Nc1cncc(-n2cnc3cc(C#N)ccc32)n1 (stereo not drawn)	< 50	< 50	–
N#Cc1ccc2ncn(-c3cncc(NC4CCc5cc(F)ccc54)n3)c2c1 (stereo not drawn)	< 50	< 50	–
c1ccc2c(c1)ncn2-c1cncc(-c2ccncc2)n1	≥ 50	< 50	–
CC(Nc1cncc(-n2cnc3cc(CN(C)C)ccc32)n1)c1ccc(F)cc1 (stereo not drawn)	< 50	< 50	≥ 50
COc1cccc2c1CCC2Nc1cncc(-n2cnc3ccc(C#N)cc32)n1 (stereo not drawn)	< 50	≥ 50	–
C[C@H](Nc1cncc(-n2ncc3ccccc32)n1)c1ccc(F)cc1	< 50	< 50	–
C[C@H](Nc1cncc(-n2cnc3cccnc32)n1)c1ccc(F)cc1	< 50	< 50	–
C[C@H](Nc1cncc(-n2cnc3ccc(CN4CCN(CCN)CC4)cc32)n1)c1ccc(F)cc1	< 50	< 50	–
O=S(=O)(Nc1ccc(-c2cncc(-n3cnc4ccccc43)n2)cc1)c1ccccc1	≥ 50	≥ 50	–
N#Cc1ccc2c(c1)ncn2-c1cncc(NC2CCc3ccc(O)cc32)n1 (stereo not drawn)	< 50	< 50	–
C[C@H](Nc1cncc(-n2cnc3ccc(CN4CCCCC4)cc32)n1)c1ccc(F)cc1	≥ 50	≥ 50	–
CCN(CC)Cc1ccc2c(c1)ncn2-c1cncc(NC(C)c2ccc(F)cc2)n1 (stereo not drawn)	< 50	< 50	≥ 50
N#Cc1ccc2ncn(-c3cncc(Cl)n3)c2c1	< 50	< 50	–
C[C@H](Nc1cncc(-n2cnc3ccc(CN4CCC(O)CC4)cc32)n1)c1ccc(F)cc1	≥ 50	< 50	–
C[C@H](Nc1cncc(-n2cnc3cc(CO)ccc32)n1)c1ccc(F)cc1	< 50	< 50	–
C[C@H](Nc1cncc(-n2cnc3ccc(-c4nn[nH]n4)cc32)n1)c1ccc(F)cc1	≥ 50	< 50	–
N#Cc1ccc2ncn(-c3cncc(NC4CCc5cc(Br)ccc54)n3)c2c1 (stereo not drawn)	< 50	≥ 50	–
CC(Nc1cncc(-n2cnc3cc(CO)ccc32)n1)c1ccc(F)cc1 (stereo not drawn)	< 50	< 50	≥ 50
COc1cccc2c1CCC2Nc1cncc(-n2cnc3cc(C#N)ccc32)n1 (stereo not drawn)	< 50	< 50	–
CCN(CC)Cc1ccc2ncn(-c3cncc(NC(C)c4ccc(F)cc4)n3)c2c1 (stereo not drawn)	< 50	< 50	–
N#Cc1ccc2c(c1)ncn2-c1cncc(N2CCc3ccccc3C2)n1	< 50	< 50	–
CC(Nc1cncc(-n2cnc3cc(CNCCN(C)C)ccc32)n1)c1ccc(F)cc1 (stereo not drawn)	< 50	< 50	–
N#Cc1ccc2c(c1)ncn2-c1cncc(NC2CCc3cc(Br)ccc32)n1 (stereo not drawn)	< 50	< 50	–
C[C@H](Nc1cncc(-n2cc3ccccc3n2)n1)c1ccc(F)cc1	< 50	< 50	–
CC(Nc1cncc(-n2cnc3ccc(CN4CCN(C)CC4)cc32)n1)c1ccc(F)cc1 (stereo not drawn)	< 50	< 50	–
C[C@H](Nc1cncc(-n2cnc3ncccc32)n1)c1ccc(F)cc1	< 50	< 50	–
c1cncc(-c2cncc(-n3cnc4ccccc43)n2)c1	≥ 50	< 50	–

The remaining lines, values ahead:

inhibition at 20 µM (human JAK2) [%]	inhibition at 20 µM (human JAK3) [%]	inhibition at 20 µM (kdr) [%]	SMILES
≥ 50	≥ 50	≥ 50	Cc1ncc(-n2cnc3cc(C#N)ccc32)nc1N[C@@H](C)c1ccccc1
≥ 50	≥ 50	–	Cc1ncc(-n2cnc3ccc(C#N)cc32)nc1N[C@@H](C)c1ccccc1
< 50	< 50	–	CC(Nc1cncc(-n2cnc3ccccc32)n1)c1ccc(-n2ccnc2)cc1 (stereo not drawn)
< 50	< 50	–	C[C@H](Nc1cncc(-n2cnc3cccnc32)n1)c1ccccc1
< 50	< 50	–	CC(Nc1cncc(-n2cnc3cc(C#N)ccc32)n1)c1cccc(OC(F)(F)F)c1 (stereo not drawn)
< 50	< 50	–	N#Cc1ccc2ncn(-c3cncc(N4CCc5ccccc5C4)n3)c2c1
≥ 50	< 50	≥ 50	CC(Nc1cncc(-n2cnc3cnccc32)n1)c1ccc(F)cc1 (stereo not drawn)
< 50	< 50	–	CC(Nc1cncc(-n2cnc3cc(C#N)ccc32)n1)c1cccc(C(F)(F)F)c1 (stereo not drawn)
≥ 50	< 50	≥ 50	CC(Nc1cncc(-n2cnc3ccc(CO)cc32)n1)c1ccc(F)cc1 (stereo not drawn)
< 50	< 50	–	C[C@@H](c1ccccc1)N(C)c1cncc(-n2cnc3cc(C#N)ccc32)n1
< 50	< 50	≥ 50	CC(Nc1cncc(-n2cnc3ccccc32)n1)c1ccncc1 (stereo not drawn)
≥ 50	< 50	–	CC(Nc1cncc(-n2cnc3ccc(C#N)cc32)n1)c1cccc(C(F)(F)F)c1 (stereo not drawn)
< 50	< 50	–	CC(Nc1cncc(-n2cnc3ccccc32)n1)c1cccc(Cl)c1 (stereo not drawn)
< 50	< 50	–	CC1CC(Nc2cncc(-n3cnc4ccc(C#N)cc43)n2)c2ccccc21 (stereo not drawn)
< 50	< 50	–	CC(Nc1cncc(-n2cnc3ccc(C#N)cc32)n1)c1cccc(OC(F)(F)F)c1 (stereo not drawn)
≥ 50	< 50	–	CC(Nc1cncc(-n2cnc3cc(C#N)ccc32)n1)c1cc(F)cc(F)c1 (stereo not drawn)
< 50	< 50	–	N#Cc1ccc2ncn(-c3cncc(N[C@H]4CCCc5ccccc54)n3)c2c1

inhibition at 20 µM (human JAK2) [%]	inhibition at 20 µM (human JAK3) [%]	inhibition at 20 µM (kdr) [%]	SMILES
≥ 50	≥ 50	–	CC(Nc1cncc(-n2cnc3ccc(C#N)cc32)n1)c1ccc(F)c(F)c1 (stereo not drawn)
≥ 50	≥ 50	–	C[C@H](Nc1cncc(-n2cnc3cc(NS(=O)(=O)c4ccccc4)ccc32)n1)c1ccccc1
≥ 50	≥ 50	–	C[C@H](Nc1cncc(-n2cnc3cc(C#N)ccc32)n1)c1ccccc1
≥ 50	≥ 50	–	CC[C@H](Nc1cncc(-n2cnc3ccc(C#N)cc32)n1)c1ccccc1
≥ 50	≥ 50	–	CC(Nc1cncc(-n2cnc3ccc(C#N)cc32)n1)c1ccccn1 (stereo not drawn)
< 50	< 50	–	CC(Nc1cncc(-n2cnc3ccc(C#N)cc32)n1)c1cccc2ccccc12 (stereo not drawn)
< 50	< 50	–	N#Cc1ccc2c(c1)ncn2-c1cncc(NC2Cc3ccccc3C2)n1
≥ 50	≥ 50	–	C[C@H](Nc1cncc(-n2cnc3ccc(C#N)cc32)n1)c1ccccc1
< 50	< 50	–	C[C@H](Nc1cncc(-n2cnc3ncccc32)n1)c1ccccc1
≥ 50	< 50	–	CC(Nc1cncc(-n2cnc3cc(C#N)ccc32)n1)c1ccccn1 (stereo not drawn)
≥ 50	< 50	–	Cc1ccc([C@H](C)Nc2cncc(-n3cnc4cc(C#N)ccc43)n2)cc1
≥ 50	≥ 50	–	CC(Nc1cncc(-n2cnc3ccc(C#N)cc32)n1)c1ccc(F)c(Cl)c1 (stereo not drawn)
≥ 50	≥ 50	–	CC(Nc1cncc(-n2cnc3cc(C#N)ccc32)n1)c1ccc(F)c(F)c1 (stereo not drawn)
< 50	< 50	–	N#Cc1ccc2ncn(-c3cncc(NC4Cc5ccccc5C4)n3)c2c1
≥ 50	< 50	–	CCCC(Nc1cncc(-n2cnc3ccccc32)n1)c1ccccc1 (stereo not drawn)
≥ 50	≥ 50	–	CC(Nc1cncc(-n2cnc3cc(C#N)ccc32)n1)c1cccc(F)c1 (stereo not drawn)
< 50	< 50	–	CC(Nc1cncc(-n2cnc3ccncc32)n1)c1ccc(F)cc1 (stereo not drawn)

Source: US7737143B2, “Substituted pyrazines as kinase inhibitors” (YM Biosciences Australia Pty Ltd, priority 2003, dated 2010)
